Assay results: patent publication US12116637B2, “Compositions and methods for detecting and treating high grade subtypes of uterine cancer” (The Regents of the University of Michigan, priority 2020, dated 2024)

Tested on: UT42^Aα-P179R and OV17^Aα-S256F cell models
Test: γH2AX foci by immunofluorescent microscopy
Assay type: cell-based, human
Details: 1 μM, 3 hrs; mutant vs wild type
Protocol: To determine if the impaired checkpoint signaling and control in the PP2A Aα mutant cells was in turn resulting in DNA damage, we analyzed γH2AX foci by immunofluorescent microscopy in both the UT42^Aα-P179R and OV17^Aα-S256F cell models following Clofarabine treatment (FIG. 9A-D). […] These findings were further confirmed by measuring γH2AX levels by western blot (FIG. 9E-H).
Immunocytochemistry: Cells were plated on 4 chamber cell culture slides (CellTreat 229164) and treated with control or compound containing media for specified times. Prepared slides were imaged at the University of Michigan Microscopy Core, using the Zeiss Apotome. Quantification of the images was performed using Image J, scale bar on images represents 50 μm.

Nc1nc(Cl)nc2c1ncn2[C@@H]1O[C@H](CO)[C@@H](O)[C@@H]1F [Clofarabine]
γH2AX foci (dsDNA damage): increase in the amount of accumulated dsDNA damage in the PP2A Aα mutant cells
